# “Also recorded” adds a separate entry of the source. Where two headings read alike, the source gives them in different places. No end group written: not given here.
# Assays:
# NSC-34 cells [1] = assay: BrdU ELISA (proliferation) in NSC-34 cells; type: cell-based, Mouse; settings: for effect of DRP on proliferation activity: compared to DMSO-treated controls; for abrogation of GR-induced proliferation inhibition: 300 nM GR15, 24 h
# Protocol: BrdU ELISA: The BrdU ELISA is an ELISA detecting cell proliferation activity. BrdU is a pyrimidine analog that, when inside the cell, can be incorporated instead of thymidine into newly synthesized strands of DNA. Just as is indicated by thymidine incorporation into DNA, BrdU incorporation into cell DNA indicates DNA synthesis activity, which is required for cell proliferation. In the BrdU ELISA, cells are treated with test compounds as well as BrdU reagent, and then incubated for 24 hours before testing. During testing, an anti-BrdU antibody detects the incorporation of BrdU into cell DNA that occurred over the 24-hour period, as a surrogate for cell proliferation activity. This anti-BrdU antibody is then labelled with a secondary antibody tagged with a colored substrate, which can be quantified spectrophotometrically. Greater absorbance readings correspond to more cell proliferation activity.
# (§1) Cells were plated in culture medium in 2 96-well plates at a density of 3.7×10^4 cells per well, and incubated overnight at 37° C., 5% CO2.
# (§2) The following conditions were plated in triplicate.
# Plates were incubated for 24 h at 37° C., 5% CO2. Cells were tested and data were analyzed using the procedure detailed in BrdU ELISA kit instructions.
# Cells were plated in culture medium in 2 96-well plates at a density of 5×10^4 cells per well, and incubated overnight at 37° C., 5% CO2. […] 10 μL of each concentration would be added to 100 μL base media in plate to achieve final concentrations of 3, 1, 0.3, 0.1, 0.03, and 0.01 μM DRP.
# The following conditions were plated in triplicate. Samples were surrounded by border wells on the outside of the plate filled with sterile Phosphate-buffered saline to prevent evaporation of volume in experimental wells during incubation; • Culture medium only • Background (Cells only in culture medium, without BrdU reagent) • Untreated (Cells only in culture medium, with BrdU reagent) • DMSO Controls (Cells treated with BrdU reagent and the amount of DMSO that DRP-treated cells were exposed to at each concentration) • i. The DMSO controls tested were as follows, corresponding to DRP doses starting at the highest (3 μM to the lowest 0.01 μM), and were diluted in culture medium: • 1. 0.03% DMSO • 2. 0.01% DMSO • 3. 0.003% DMSO • 4. 0.001% DMSO • 5. 0.0003% DMSO • 6.
# NSC-34 cells [2] = assay: LDH assay (cytotoxicity) in NSC-34 cells; type: cell-based; settings: for DRP-induced toxicity: incubated 24 hours; for toxicity: DRP concentrations as low as 300 nM
# Text: LDH Assay: The LDH assay is a colorimetric assay that measures cell toxicity and death. […] When cells lose membrane integrity, an enzyme found in living cells called lactate dehydrogenase (LDH) is released into the solution surrounding the dying cell. A form of programmed cell death, apoptosis, as well as other forms of cell death also ultimately lead to a cell's membrane being destroyed, resulting in a large release of LDH into the extracellular space. Thus, LDH is an excellent marker not only for necrosis, but for all instances of cell death. In an LDH assay, a sample of the solution surrounding the cell is isolated, and transferred to a plate containing an LDH reaction mixture. This reaction mixture contains a tetrazolium salt intermediate and other reaction constituents that, when exposed to LDH, convert the tetrazolium salt into a colored Formazan product. This Formazan product can be quantified spectrophotometrically. Greater absorbance readings correspond to more cell death.
# One row on the top and bottom of the plate, and two columns on either side of the plate, were left without cells and contained culture medium only to minimize experimental well volume evaporation. After plating, cells were incubated for 24 h at 37° C., 5% CO2 prior to DRP and/or PRMT inhibitor addition. At time of DRP/PRMT inhibitor addition, desired doses of DRP for challenge and inhibitor for treatment were achieved by diluting aliquots of each stock in warm culture medium. During experiments where both PRMT inhibitors and DRPs were used, PRMT inhibitors were always applied to wells first, and followed by DRP application. […] Inhibitor toxicity controls were included as wells treated with the desired doses of drug for the experiment, but no DRP. DRP toxicity controls were included as wells only treated with the doses of DRP used for challenge. Once dosed, plates were incubated for 24 h at 37° C., 5% CO2 prior to running the WST-1 or LDH assay endpoints. Additional controls needed for each endpoint are specified in the “WST-1 Assay” and “LDH Assay” sections of these methods.
# LDH Assay: Cells were plated and prepared using the steps described in the “Plating NSC-34 and Dosing with DRPs and PRMT Inhibitors” section of these methods. Other controls for this experiment included several sets of wells with only cells in culture medium (one triplicate designated for “untreated,” one triplicate designated for “lysed” positive control), and wells with culture medium only. An additional control added only to the transfer plate at time of testing was 5 μL LDH only. Testing was performed using colorimetric LDH-Cytotoxicity Assay Kit II (Abcam, Cambridge, MA, USA) per manufacturer's instructions. Final read at 450 nm was performed on a SpectraMax M3 Microplate Reader (Molecular Devices, San Jose, CA, USA). Data analysis included calculation of % LDH release using the following equation: […]
# Experiments included three replicates per condition. Each experiment was repeated twice (executed three times total).
# as §2
# Plates were incubated for 24 h at 37° C., 5% CO2. Cells were tested and data were analyzed by LDH assay.
# as §1, §2
# Cells were plated in culture medium in 2 96-well plates at a density of 3.7×10^4 cells per well, and incubated overnight at 37° C., 5% CO2. […]
# The following conditions were plated in triplicate. […]
molecule,measurement,setting,value
PRPRPRPRPRPRPRPRPRPRPRPRPRPRPR [PR15],rank among DRPs as inhibitor of proliferative activity,"NSC-34 cells [1]; DRP 0.01-3 μM, 24 h",the strongest inhibitor
same,effect of DRP on proliferation activity,"NSC-34 cells [1]; DRP 0.01-3 μM, 24 h",significantly suppressed proliferative activity in a dose-dependent manner
same,EC50,NSC-34 cells [2]; 24 h,56 ± 20 nM
same,DRP-induced toxicity,NSC-34 cells [2]; DRP 0.01-3 μM,"produced significant, dose-dependent toxicity"
same,toxicity,NSC-34 cells [2]; 24 h,approximately 10%
CC(C)Oc1ccc(-c2c[nH]cc2CN(C)CCN)cc1 [MS023],abrogation of GR-induced proliferation inhibition,NSC-34 cells [1]; all doses (1-60 μM),partially abrogated
same,abrogation of GR-induced proliferation inhibition,NSC-34 cells [1]; dose 3 μM,fully rescuing
same,excessive proliferation,"NSC-34 cells [1]; 300 nM GR15 or PR15, 24 h, all doses tested (1-60 μM)",without inducing excessive proliferation
same,abrogation of PR-induced proliferation inhibition,"NSC-34 cells [1]; 300 nM PR15, 24 h, all doses (1-60 μM)",fully abrogated
same,effect on GR15-induced cytotoxicity,"NSC-34 cells [2]; 300 nM GR15, 24 h, MS023 60 and 30 μM",significantly amplified cytotoxicity
same,abrogation of PR-induced cytotoxicity,"NSC-34 cells [2]; 300 nM PR15, 24 h, all doses applied (1-60 μM)",at least partially abrogated
same,abrogation of ADMe-GR15-induced cytotoxicity,"NSC-34 cells [2]; 3 μM ADMe-GR15, 24 h, MS023 0.1-10 μM",did not abrogate
same,abrogation of GR-induced toxicity,"NSC-34 cells [2]; 3 μM GR15, 24 h, all tested doses (1-60 μM)",partially abrogated
same,dose dependence of abrogation of GR15-induced cytotoxicity,"NSC-34 cells [2]; 3 μM GR15, 24 h, dose range of the example","potently, and dose-dependently abrogated; also recorded: consistently dose-dependently abrogated"
same,abrogation of GR-induced toxicity,"NSC-34 cells [2]; 3 μM GR15, 24 h, doses 0.01, 0.03, 0.1 and 0.3 μM",partially abrogated
same,abrogation of GR-induced toxicity,"NSC-34 cells [2]; 3 μM GR15, 24 h, doses 0.3, 1 and 3 μM",completely abrogated
same,abrogation of GR15-induced cytotoxicity,"NSC-34 cells [2]; 3 μM GR15, 24 h, doses 1 and 3 μM",completely abrogated
same,relative potency against GR- vs PR-induced toxicity,"NSC-34 cells [2]; 3 μM GR15 or PR15, 24 h, MS023 0.01-3 μM",more potently abrogated PR-induced toxicity
same,dose dependence of abrogation of PR15-induced cytotoxicity,"NSC-34 cells [2]; 3 μM PR15, 24 h, dose range of the example","potently, and dose-dependently abrogated"
same,abrogation of PR-induced toxicity,"NSC-34 cells [2]; 3 μM PR15, 24 h, doses 0.01, 0.03 and 0.1 μM",partially abrogated
same,abrogation of PR-induced toxicity,"NSC-34 cells [2]; 3 μM PR15, 24 h, doses 0.03, 0.1, 0.3, 1 and 3 μM",completely abrogated
same,abrogation of PR-induced cytotoxicity,"NSC-34 cells [2]; 3 μM PR15, 24 h, doses 1 and 3 μM",fully abrogated; also recorded: completely abrogated
same,abrogation of PR-induced cytotoxicity,"NSC-34 cells [2]; 3 μM PR15, 24 h, doses 10, 30 and 60 μM",partially abrogated
same,cytotoxicity of inhibitor alone,"NSC-34 cells [2]; no DRP, highest dose 60 μM",did produce significant cytotoxicity
GRGRGRGRGRGRGRGRGRGRGRGRGRGRGR [GR15],effect of DRP on proliferation activity,"NSC-34 cells [1]; DRP 0.01-3 μM, 24 h",significantly suppressed proliferative activity in a dose-dependent manner
same,cytotoxicity induced by DRP challenge,"NSC-34 cells [2]; DRP 10 nM-3 μM, 24 h",induced dose-dependent cytotoxicity
same,EC50,"NSC-34 cells [2]; DRP 0.01-3 μM, 24 h, read-out: EC50 of DRP-induced toxicity",50 ± 26 nM
same,DRP-induced toxicity,NSC-34 cells [2]; DRP 0.01-3 μM,"produced significant, dose-dependent toxicity"
same,toxicity,NSC-34 cells [2]; 24 h,approximately 10%

# Reference: patent US12318365B2, “Inhibition of dipeptide repeat proteins” (ALS Therapy Development Institute, priority 2019, dated 2025)
